Laboratory results as given in publication PMC8580884, “A Novel System for Evaluating the Inhibition Effect of Drugs on Cytochrome P450 Enzymes in vitro Based on Human-Induced Hepatocytes (hiHeps)” (Frontiers in Pharmacology, 2021).

What was measured:
CYP2B6 [1] = target: T1, CYP2B6 (Homo sapiens, UniProt P20813); assay: intact hiHeps cells, metabolite by UPLC-MS/MS, Lineweaver-Burk; assay type: cell-based; conditions: hepatocytes
T1 construct: native enzyme in human liver microsomes (IC50) or human-induced hepatocytes hiHeps (Km); read by bupropion to hydroxybupropion
T1 sequence (P20813 1-491): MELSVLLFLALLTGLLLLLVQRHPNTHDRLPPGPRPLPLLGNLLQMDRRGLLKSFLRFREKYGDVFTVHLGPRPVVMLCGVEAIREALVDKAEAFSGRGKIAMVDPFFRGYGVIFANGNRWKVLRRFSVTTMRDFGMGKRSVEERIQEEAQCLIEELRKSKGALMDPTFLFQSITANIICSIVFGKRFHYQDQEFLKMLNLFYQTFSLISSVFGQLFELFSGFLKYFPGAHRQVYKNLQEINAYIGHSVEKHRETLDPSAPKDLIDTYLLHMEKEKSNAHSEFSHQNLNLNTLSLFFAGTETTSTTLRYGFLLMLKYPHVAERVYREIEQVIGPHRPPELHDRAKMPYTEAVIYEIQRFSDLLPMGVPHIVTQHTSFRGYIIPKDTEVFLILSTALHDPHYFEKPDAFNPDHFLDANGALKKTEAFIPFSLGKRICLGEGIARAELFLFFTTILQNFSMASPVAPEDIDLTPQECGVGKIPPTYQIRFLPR

CYP3A4 [2] = target: T2, CYP3A4 (Homo sapiens, UniProt P08684); assay: human liver microsomes, cocktail probe assay, UPLC-MS/MS; assay type: biochemical; conditions: 10 μM midazolam in five-probe cocktail, NADPH, MgCl2, alamethicin, 37°C, 60 min; read-out: IC50 (μM) / HLM
T2 construct: native enzyme in human liver microsomes (IC50) or human-induced hepatocytes hiHeps (Km); read by midazolam to 1'-hydroxymidazolam (CYP3A5 may contribute)
Source text: human liver microsomes, cocktail probe assay, UPLC-MS/MS on CYP3A4

CYP2C19 = target: T3, CYP2C19 (Homo sapiens, UniProt P33261); assay: as above; assay type: biochemical; conditions: read-out: IC50 (μM) / HLM
T3 construct: native enzyme in human liver microsomes (IC50) or human-induced hepatocytes hiHeps (Km)
Source text: human liver microsomes, cocktail probe assay, UPLC-MS/MS on CYP2C19

CYP2B6 [3] = target: T1, CYP2B6; assay: as above; assay type: biochemical; conditions: read-out: IC50 (μM) / HLM
Source text: human liver microsomes, cocktail probe assay, UPLC-MS/MS on CYP2B6

CYP1A2 = target: T4, CYP1A2 (Homo sapiens, UniProt P05177); assay: as above; assay type: biochemical; conditions: read-out: IC50 (μM) / HLM
T4 construct: native enzyme in pooled human liver microsomes (IC50) or human-induced hepatocytes hiHeps (Km); read by phenacetin to acetaminophen
T4 sequence (P05177 2-516): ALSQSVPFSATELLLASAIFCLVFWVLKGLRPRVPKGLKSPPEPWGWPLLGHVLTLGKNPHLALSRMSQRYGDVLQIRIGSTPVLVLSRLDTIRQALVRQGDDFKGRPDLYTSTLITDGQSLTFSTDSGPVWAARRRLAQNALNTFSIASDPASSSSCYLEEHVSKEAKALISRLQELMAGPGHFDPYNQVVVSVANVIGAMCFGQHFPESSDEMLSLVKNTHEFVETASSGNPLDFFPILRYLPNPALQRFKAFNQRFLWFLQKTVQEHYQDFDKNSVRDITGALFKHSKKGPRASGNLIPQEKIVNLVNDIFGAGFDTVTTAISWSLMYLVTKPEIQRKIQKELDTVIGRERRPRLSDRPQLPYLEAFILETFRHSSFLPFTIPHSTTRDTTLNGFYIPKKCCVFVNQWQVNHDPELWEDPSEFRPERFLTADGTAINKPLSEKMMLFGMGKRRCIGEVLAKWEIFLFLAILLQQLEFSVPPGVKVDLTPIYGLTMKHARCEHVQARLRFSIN
Source text: human liver microsomes, cocktail probe assay, UPLC-MS/MS on CYP1A2

CYP2C9 = target: T5, CYP2C9 (Homo sapiens, UniProt P11712); assay: intact hiHeps cells, metabolite by UPLC-MS/MS, Lineweaver-Burk; assay type: cell-based; conditions: hepatocytes
T5 construct: native enzyme in human liver microsomes (IC50) or human-induced hepatocytes hiHeps (Km); read by diclofenac to 4'-hydroxydiclofenac

CYP3A4 [4] = target: T2, CYP3A4; assay: as above; assay type: cell-based

T2 sequence (P08684 2-503): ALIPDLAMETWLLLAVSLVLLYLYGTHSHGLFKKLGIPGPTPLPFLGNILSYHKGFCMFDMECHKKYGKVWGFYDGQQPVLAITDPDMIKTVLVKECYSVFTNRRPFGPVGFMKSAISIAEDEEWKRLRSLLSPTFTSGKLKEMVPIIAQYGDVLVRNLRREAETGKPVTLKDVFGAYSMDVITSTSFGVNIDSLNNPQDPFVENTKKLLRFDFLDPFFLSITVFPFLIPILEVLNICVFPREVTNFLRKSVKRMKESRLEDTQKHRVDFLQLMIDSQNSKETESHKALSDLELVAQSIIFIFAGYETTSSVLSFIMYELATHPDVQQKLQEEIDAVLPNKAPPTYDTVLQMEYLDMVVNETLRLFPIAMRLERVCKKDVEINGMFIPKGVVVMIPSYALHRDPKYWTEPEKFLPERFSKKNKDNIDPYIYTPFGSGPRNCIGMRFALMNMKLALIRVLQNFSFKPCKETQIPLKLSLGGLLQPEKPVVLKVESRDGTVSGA
T3 sequence (P33261 whole entry): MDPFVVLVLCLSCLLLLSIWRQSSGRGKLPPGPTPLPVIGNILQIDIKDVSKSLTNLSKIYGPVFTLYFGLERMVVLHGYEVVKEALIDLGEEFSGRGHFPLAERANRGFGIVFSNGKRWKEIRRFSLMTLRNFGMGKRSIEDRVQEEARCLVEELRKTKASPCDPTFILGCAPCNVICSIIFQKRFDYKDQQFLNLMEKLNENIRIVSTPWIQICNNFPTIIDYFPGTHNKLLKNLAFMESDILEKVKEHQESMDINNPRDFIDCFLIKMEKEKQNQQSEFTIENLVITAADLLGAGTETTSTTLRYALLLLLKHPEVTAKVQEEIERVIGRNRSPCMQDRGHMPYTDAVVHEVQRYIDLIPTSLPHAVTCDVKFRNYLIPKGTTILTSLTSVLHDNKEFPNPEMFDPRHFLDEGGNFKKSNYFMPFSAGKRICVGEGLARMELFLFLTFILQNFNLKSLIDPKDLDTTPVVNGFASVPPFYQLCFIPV
T5 sequence (P11712 whole entry): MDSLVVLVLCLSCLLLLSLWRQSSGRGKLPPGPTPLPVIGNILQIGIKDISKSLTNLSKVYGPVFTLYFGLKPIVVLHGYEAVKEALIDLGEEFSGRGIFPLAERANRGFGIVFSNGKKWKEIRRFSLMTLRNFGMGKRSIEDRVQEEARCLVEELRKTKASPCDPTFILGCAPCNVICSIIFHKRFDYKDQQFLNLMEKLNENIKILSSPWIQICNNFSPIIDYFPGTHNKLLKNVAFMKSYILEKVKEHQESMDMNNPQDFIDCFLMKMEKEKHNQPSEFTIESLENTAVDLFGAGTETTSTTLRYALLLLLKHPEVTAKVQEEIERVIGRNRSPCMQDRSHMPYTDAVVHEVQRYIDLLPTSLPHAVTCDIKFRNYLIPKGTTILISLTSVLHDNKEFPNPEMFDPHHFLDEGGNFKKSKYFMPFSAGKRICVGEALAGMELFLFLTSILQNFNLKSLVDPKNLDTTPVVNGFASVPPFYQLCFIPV

CC(NC(C)(C)C)C(=O)c1cccc(Cl)c1 (stereo not shown) [bupropion]
Km (CYP2B6 [1]): 151 µM

COc1cc(/C=C/C(=O)CC(=O)/C=C/c2ccc(O)c(OC)c2)ccc1O [curcumin]
IC50 (CYP3A4 [2]): 21 ± 1.27 µM
IC50 (CYP2C19): > 500 µM
IC50 (CYP2B6 [3]): 30 ± 2.09 µM
IC50 (CYP1A2): 50.1 ± 2.71 µM

O=C(O)Cc1ccccc1Nc1c(Cl)cccc1Cl [diclofenac]
Km (CYP2C9): 41.9 µM

Cc1ncc2n1-c1ccc(Cl)cc1C(c1ccccc1F)=NC2 [midazolam]
Km (CYP3A4 [4]): 13.9 µM
